The record followed here is US20230255954A1, “INTERLEUKIN 33 (IL-33) INHIBITION FOR TREATMENT OF CANCER, FIBROSIS AND INFLAMMATION” (The General Hospital Corporation, priority 2020, published 2023).

Assay [1] relates to Pam212 cells. Briefly: Pam212 proliferation assay (CellTiter 96). Format: cell-based, mouse. The settings on record: 10 μM SB431542 for 3 hours; to the same degree as knocking down IL-33. On the procedure: Pam212 cells were transfected with siIl33 (QIAGEN, catalog no. SI00870443) or siCon (QIAGEN, catalog no. 1022076) using Lipofectamine RNAiMax Transfection reagent (Thermo Fisher Scientific, catalog no. 13778075) according to the manufacturer's instructions. The following day, cells were divided into 96 well plates with a serial dilution of cells. The next day, the cells were treated with 5 nM of TGF-β (Cell Signaling Technology, catalog no. 5231LF) or 10 μM of SB431542 for 3 hours. After incubation, the proliferation assay was performed by CellTiter 96 Non-radioactive Cell proliferation assay (Promega, Madison, Wis., catalog no. G4001) according to the manufacturer's instructions. O.D was recorded as the measure of cell proliferation in each well. Absorbance (O.D) reading is directly proportional to the cell proliferation in each well.

The test system of assay [2] is DNFB-treated WT and IL-33KO mice skin. Briefly: DNFB chronic skin inflammation with SB431542. Format: in vivo, mouse. The settings on record: 22 days. The method, then:
Four- to six-week-old male and female mice were shaved on their abdomen and sensitized to 50 μL 0.5% 1-Fluoro-2,4-dinitrobenzene (DNFB, Millipore Sigma, St. Louis, Mo., catalog no. 42085) dissolved in acetone plus olive oil at a 3:1 ratio (refer to as acetone). Two days after first sensitization, mice were re-sensitized to 50 μL 0.25% DNFB on their abdomen. After 5 days, mice were challenged with 100 μL 0.25% DNFB on their back skin, which was repeated three times per week for 22 days. The skin rash was monitored over the duration of the study.
(§1) To inhibit the TGF-β/SMAD signaling pathway (Mordasky Markell et al, 2010), mice were treated with 10 μM SB431542 (Millipore Sigma, catalog no. 301836-41-9) in 200 μL acetone or 200 μL acetone alone to their back skin twice a week. SB431542/acetone treatments were given in between TPA or DNFB doses.
Tissue samples were collected and fixed in 4% paraformaldehyde (Millipore Sigma, catalog no. P6148) overnight at 4° C. Next, tissues were dehydrated in ethanol, processed and embedded in paraffin. 5 μm sections paraffin-embedded tissues were placed on slides, deparaffinized and stained with H&E. For immunohistochemistry, antigen retrieval was performed in 500 μL of antigen unmasking solution (VECTOR Laboratories, Burlingame, Calif., catalog no. H3300) diluted in 50 mL water using Cuisinart pressure cooker for 20 min at high pressure. Slides were washed three times for three minutes each in 1×TBS with 0.025% Triton X-100. Sections were blocked with 1% bovine serum albumin (Thermo Fisher Scientific, catalog no. BP1600) and 5% goat serum (Millipore Sigma, catalog no. G9023) for 1 hour. Slides were stained overnight at 4° C. with a primary antibody diluted in TBS containing 1% BSA (Table A). The following day, slides were washed as above and incubated in 100 μL biotinylated secondary antibody (VECTOR Laboratories, catalog no. PK-6200) for 30 min. After washing, slides were incubated with 100 μL mixture of reagent A and B from VECTASTAIN Elite ABC universal kit Peroxidase (VECTOR Laboratories, catalog no. PK-6200) for 30 min. After washing, slides were incubated with 100 μL ImmPACT DAB chromogen stating (VECTOR Laboratories, catalog no. SK-4105) for a few minutes. Finally, slides were dehydrated in ethanol and xylene and mounted with a coverslip using 3 drops of mounting media. For immunofluorescence staining, rehydrated tissue sections were permeated with 1×PBS supplemented with 0.2% Triton X-100 for 5 min. Antigen retrieval was performed similar to immunohistochemistry. Slides were washed three times for three minutes each in 1×PBS with 0.1% TWEEN20. […] The number of positive cells was counted in randomly selected high power field (HPF, 200× magnification) images in a blinded manner by a trained investigator. […]

For assay [3], the system named is Pam212 cells. Briefly: Ki67+ proliferating Pam212 cells. Format: cell-based, mouse.
Assay [4] deals with DMBA/TPA skin tumors in WT and K14-IL33tg,ST2KO mice. Briefly: DMBA/TPA skin carcinogenesis protocol with SB431542. Format: in vivo, mouse. On the procedure: For DMBA/DNFB carcinogenesis protocol (Ameri et al., 2019), four- to six-week-old male and female mice were shaved on their abdomen and sensitized to 50 μL 0.5% DNFB. Two days later, mice were re-sensitized to 50 μL 0.25% DNFB on the abdomen. Five days later, mice were treated with […] 7,12-dimethylbenz(a)anthracene (DMBA, Millipore Sigma, catalog no. D3254) in 200 μL acetone on their back skin. After a week, mice were challenged with 100 μL 0.25% DNFB on their back skin, which was continued three times per week for 30 weeks at the dosage that maintained mild erythematous dermatitis in WT mice. Skin rash and tumor development were monitored and recorded weekly over the duration of the study. For DMBA/TPA carcinogenesis protocol, mice were treated with 6 μg 12-O-tetradecanoylphorbol-13-acetate (TPA, Millipore Sigma, catalog no. P1585) in 200 μL acetone instead of DNFB in DMBA/DNFB protocol without abdominal sensitization.
as §1
Tissue samples were collected and fixed in 4% paraformaldehyde (Millipore Sigma, catalog no. P6148) overnight at 4° C. Next, tissues were dehydrated in ethanol, processed and embedded in paraffin. 5 μm sections paraffin-embedded tissues were placed on slides, deparaffinized and stained with H&E. For immunohistochemistry, antigen retrieval was performed in 500 μL of antigen unmasking solution (VECTOR Laboratories, Burlingame, Calif., catalog no. H3300) diluted in 50 mL water using Cuisinart pressure cooker for 20 min at high pressure. Slides were washed three times for three minutes each in 1×TBS with 0.025% Triton X-100. Sections were blocked with 1% bovine serum albumin (Thermo Fisher Scientific, catalog no. BP1600) and 5% goat serum (Millipore Sigma, catalog no. G9023) for 1 hour. Slides were stained overnight at 4° C. with a primary antibody diluted in TBS containing 1% BSA (Table A). The following day, slides were washed as above and incubated in 100 μL biotinylated secondary antibody (VECTOR Laboratories, catalog no. PK-6200) for 30 min. After washing, slides were incubated with 100 μL mixture of reagent A and B from VECTASTAIN Elite ABC universal kit Peroxidase (VECTOR Laboratories, catalog no. PK-6200) for 30 min. After washing, slides were incubated with 100 μL ImmPACT DAB chromogen stating (VECTOR Laboratories, catalog no. SK-4105) for a few minutes. Finally, slides were dehydrated in ethanol and xylene and mounted with a coverslip using 3 drops of mounting media. For immunofluorescence staining, rehydrated tissue sections were permeated with 1×PBS supplemented with 0.2% Triton X-100 for 5 min. Antigen retrieval was performed similar to immunohistochemistry. Slides were washed three times for three minutes each in 1×PBS with 0.1% TWEEN20. Sections were blocked with 1% bovine serum albumin and 5% goat serum for 1 hour. The slides were stained overnight at 4° C. with primary antibodies (Table A). The following day, slides were washed as above and incubated for two hours at room temperature with secondary antibodies conjugated to fluorochromes (Table A). Next, slides were incubated with 1:2000 DAPI (Thermo Fisher Scientific, catalog no. D3571) for five minutes at room temperature, then washed as above. Slides were mounted with Prolong Gold Antifade Reagent (Thermo Fisher Scientific, catalog no. P36930). The number of positive cells was counted in randomly selected high power field (HPF, 200× magnification) images in a blinded manner by a trained investigator. Clinical samples were reviewed by a pathologist.

The mark [5] stands for this setting: DMBA/TPA-treated K14-IL33tg,ST2KO skin, vs acetone-treated controls.
Where [6] appears, read: K14-IL33tg,ST2KO mice, DMBA/TPA, vs acetone-treated.
The mark [7] stands for this setting: WT mice, 30-week DMBA/TPA treatment.

Turning to `NC(=O)c1ccc(-c2nc(-c3ccc4c(c3)OCO4)c(-c3ccccn3)[nH]2)cc1` [SB431542], the Pam212 cell proliferation entry in the assay with Pam212 cells [1] is listed as “reduced”. Further, in assay [2] (DNFB-treated IL-33KO mice), the epidermal hyperplasia result is given as “no impact” and the keratinocyte proliferation entry is reported as “no impact”. Besides, the keratinocyte proliferation entry in assay [2] (DNFB-treated WT mice) is reported as “markedly decreased”. Also, the epidermal hyperplasia result in assay [2] (DNFB-treated WT mice, 10 μM SB431542 in 200 μL acetone twice a week) is given as “markedly decreased”. The “Ki67+ proliferating cells” value with Pam212 cells [3] is reported as “significantly reduced”. Also, the “apoptosis (cleaved caspase-3)” value in assay [4] (DMBA/TPA-treated K14-IL33tg,ST2KO skin) was “without impacting”. Also, in assay [4] (setting [5]), the “number of Ki67+ epidermal keratinocytes” value is “reduced” and the “number of p-SMAD2/3+ epidermal keratinocytes” value was “reduced”. In assay [4] (setting [6]), the “number of skin tumors” value is on record as “significantly fewer” and the tumor latency result is reported as “markedly increased”. Further, the skin tumor size entry in assay [4] (K14-IL33tg,ST2KO mice, DMBA/TPA, vs controls) was “smaller”. Moreover, in assay [4] (setting [7]), the endpoint tumor volumes entry is on record as “no significant impact”, the skin tumor onset result is on record as “no significant impact” and the “tumor numbers over time” value was “no significant impact”.
